The target of assay [1] is T1, human neutrophil azurocidin (Homo sapiens, UniProt P20160).
T1 construct: purchased Athens Research and Biotechology, Atlanta, Ga
T1 sequence (P20160 27-248): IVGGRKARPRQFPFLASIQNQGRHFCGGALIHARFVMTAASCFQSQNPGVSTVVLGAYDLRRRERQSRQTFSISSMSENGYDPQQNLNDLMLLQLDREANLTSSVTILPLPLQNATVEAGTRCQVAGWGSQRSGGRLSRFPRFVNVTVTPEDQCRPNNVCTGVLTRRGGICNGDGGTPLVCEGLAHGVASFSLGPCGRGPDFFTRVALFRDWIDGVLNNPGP
The assay is described as follows: Suppression of azurocidin-induced BRB breakdown (Evans Blue). Type of assay: in vivo, Brown Norway rats. The protocol: (§1) This study employed Brown Norway rats, AZ (1 μg, 10 μg, 20 μg), PBS, aprotinin, VEGF164, and polyclonal anti-AZ antibody (1 μg). Briefly, Brown Norway rats received intravitreal injections of AZ (1 μg, 10 μg and 20 μg) in one eye and PBS in the contralateral eye. BRB breakdown was quantified using the Evans Blue (EB) technique at 1 hour, 3 hours, and 24 hours after intravitreal injection of AZ or PBS. To assess whether AZ induced retinal leukostasis, firm leukocyte adhesion was quantified at 3 hours and 24 hours post AZ injection (10 μg) using the ex vivo conconavalin leukostasis assay. To block AZ, rats were treated with a single intravenous injection of aprotinin (30,000KIU), prior to the intravitreal injections. To investigate whether AZ was involved in VEGF-induced BRB breakdown, rats received intravitreal injections of 50 ng recombinant mouse VEGF164 in one eye and PBS in the other eye and were treated intravenously with aprotinin (50,000KIU every eight hours) or polyclonal anti-AZ antibody (1 μg). BRB breakdown and retinal leukostasis were quantified 24 hours after VEGF injection.
In a second group, the rats were additionally treated intravenously with the azurocidin inhibitor, aprotinin (Trasylol®, Bayer Pharmaceuticals). […] The retinas were analyzed one hour after azurocidin administration using the Evans Blue technique.
Retinal vascular permeability was quantified as previously described (Qaum et al. (2002) supra, Xu et al. (2001) INVEST. OPHTHALMOL. VIS. SCI. 42; 789-94). […] The background-subtracted absorbance was determined by measuring each sample at 620 nm (the absorbance maximum for Evans blue dye in formamide) and 740 nm (the absorbance minimum) with a spectrophotometer. The concentration of dye in the plasma was calculated from a standard curve of Evans blue dye in formamide. […] The background-subtracted absorbance was determined by measuring each sample at 620 nm (the absorbance maximum for Evans blue dye in formamide) and 740 nm (the absorbance minimum). The concentration of dye in the extracts was calculated from a standard curve of Evans blue dye in formamide. […]

The test system of assay [2] is VEGF-induced retinal leukostasis. The experiment in a line: Concanavalin A ex vivo retinal leukostasis quantification, VEGF-induced. Type of assay: in vivo, Brown Norway rats. The protocol: as §1
Deep anesthesia was induced with xylazine and ketamine as above. The chest cavity was carefully opened and the left ventricle was entered with a 14-gauge perfusion cannula fixed to a vessel clamp; care was taken to avoid ventricular obstruction. The right atrium was opened with a 12-gauge needle to achieve outflow. With the heart providing the motive force, 250 ml/kg PBS (roughly 30 ml of PBS quickly) was perfused to clear erythrocytes and non-sticking leukocytes, followed by perfusion with FITC-coupled Concanavalin A lectin (20 μg/ml in PBS, pH 7.4, total concentration 5 mg/kg) (Vector Labs, Burlingame, Calif.). The latter stained adherent leukocytes and the vascular endothelium. Lectin staining was followed by PBS perfusion (30 ml quickly).
The retinas were flat-mounted in a water-based fluorescence-anti-fading medium (Southern Biotechnology, Birmingham, Ala.) and imaged via fluorescence microscopy (Leica upright microscope, Hamamatsu digital high sensitivity camera, openlab imaging software). The total number of adherent leukocytes per retina was counted in a masked fashion.

Take aprotinin: in assay [1] (aprotinin treatment alone (PBS-injected eye)), the “basal levels of retinal vascular leakage” value is listed as “did not affect basal levels of retinal vascular leakage”. Further, the “block of AZ-induced leakage” value in assay [1] (single i.v. 30,000KIU 1 hour before intravitreal azurocidin 20 μg, Evans Blue 1 hour later) was “greater than 98%”. In assay [1] (single i.v. 30,000KIU 1 hour before intravitreal azurocidin, AZ alone 45±17), the “Evans Blue retinal leakage in AZ-injected eyes” value is given as 6±0.64 μl plasma/g retina/h. For the same substance, the “leukocyte adhesion as a percentage of leukocyte adhesion in the contralateral PBS-injected eye” value in assay [2] (24 hours after 50 ng VEGF, aprotinin 50,000 KIU i.v. 1 hour before, 8 and 16 hours after) was determined as 252%. The “leukocyte adhesion, VEGF-injected vs VEGF- and aprotinin-treated eyes” value in assay [2] (P>0.05) is “did not differ significantly”.

(Values after patent US20070248646A1, “Use of azurocidin inhibitors in prevention and treatment of ocular vascular leakage” (priority 2006, published 2007).)
